These results are taken from US6441134B1, “Isolated Candida albicans oligopeptide transporter gene” (The University of Tennessee Research Corporation, dated 2002).

Starred links: 1 amine or outer side, 2 acyl side, 3 side chain; linkers in the order of their positions; H or OH if unused. Non-standard residues stand in square brackets, D forms with d. Residues, ends and D or L forms follow the SMILES beside them. No end group written: not given here. Eth = ethionine, CCSCC[C@H](N[*:1])C(=O)[*:2]; Ethionine = CCSCC[C@H](N[*:1])C(=O)[*:2]; hCys = N[C@@H](CCS)C(=O)O

For test [1], the system named is S. cerevisiae PB1X-9B(pRS202). The test can be described thus: Disk sensitivity assay to ethionine-containing peptides, PB1X-9B(pRS202). Type of test: cell-based, Saccharomyces cerevisiae. The following applies: for zone of growth inhibition / sensitivity: 0.1% proline as nitrogen source, 0.38 μmoles per 6 mm disk; for zone of growth inhibition: medium containing ammonium sulfate. The method, then:
(§1) S. cerevisiae PB1X-9B is sensitive to the toxic amino acid ethionine Eth) but is resistant to ethionine containing di-, tri-, tetra-, and pentapeptides. Disk sensitivity assays was utilized to determine if cells transformed with pOPT1 were sensitive to toxic peptides and whether this sensitivity was dependent upon nitrogen source.
(§2) Sensitivity to ethionine, a toxic methionine analog, and ethionine-containing peptides was determined by the method described by Island et al. (1987). Cells were grown overnight to exponential phase of growth in SC, washed, and resuspended at 5×10^6 cells /ml in sterile water. One ml of this cell suspension was added to 3 ml molten Noble agar (0.8% final concentration) and overlayed on 20 ml of the same medium used to prepare the inoculum. A disk (6 mm diameter, Difco) was placed on the plate and 0.38 μmoles of the compounds to be tested were applied to the disks. Zones of inhibition were measured after 24-48 hr incubation at 30 iC. Each test comprised at least three independent assays and the results represented in the Tables are means of the values obtained. Maximum variation between the zones of inhibition measured for each test were ^23 mm. A value of 7 mm for the diameter of zone of inhibition represents a minimal growth inhibition value as the disk diameter was 6 mm. Photodocumentation of sensitivity assays was done with a Umax Scanner and processed through Adobe Photoshop.

Test [2] concerns S. cerevisiae PB1X-9B(pOPT1). Type of test: cell-based, Saccharomyces cerevisiae. The following applies: 0.38 μmoles per 6 mm disk; for zone of growth inhibition / sensitivity: 0.1% proline as nitrogen source; for zone of growth inhibition: ammonium sulfate as nitrogen source, 24-48 hr. The method, then:
as §1, §2

The test system of test [3] is oligopeptide transporter (OPT1) expressed in S. cerevisiae PB1X-9B. Kind of test: Peptide transport competition experiment, KLG-[3H]L uptake by PB1X-9B(pOPT1). Type of test: cell-based, Candida albicans. The following applies: for uptake rate of KLG-[3H]L in the presence of the competitor: SC-Ura with ammonium sulfate; for competition with the uptake of KLG-[3H]L: 10-fold molar excess of competitor, FIG. 7. As for the experimental part:
To more rigorously determine the size constraints of the oligopeptide transporter, the accumulation of KLG-[^3H]L SEQ ID NO:7 was measured in the presence of 10-fold molar excess of the competitors L, KL, KLG, KLLG SEQ ID NO:6, and KLLLG SEQ ID NO:8. […] Uptake rates were calculated from a bestfit of the slope for each set of data. The uptake rate of KLG-[^3H]L SEQ ID NO:7 in the presence of no competitor, L, or KL was […] of dry weight, respectively. When KLG was used as a competitor the uptake rate was 0.12 nmoles/min/mg of dry weight which was approximately 50% of the no-competitor rate. The uptake rate approximated zero when KLLG SEQ ID NO:6 and KLLLG SEQ ID NO:8 were used as competitors.
Uptake of KLG-[^3H]L SEQ ID NO:7 was determined using a protocol for uptake of dipeptides as described by Basrai et al. (1995) with a few modifications. S. cerevisiae cultures were grown overnight to exponential phase in SC-Ura medium. Cells were harvested by centrifugation, and resuspended in 2% glucose at a cell density of 2×10^8 cells/ml. Two hundred and fifty microliters of cell suspension were added to an equal volume of an uptake assay reaction mixture and incubated at 30iC. The final concentrations of the components in the uptake assay solution were: glucose (2%, w/v), 10 mM sodium citrate/potassium phosphate buffer (pH 5.0), and KLG-[^3H]L SEQ ID NO:7 (150 μM; 8.5 mCi/mmol). Competition experiments were done in the presence of either 1.5 mM L, KL, KLG, KLLG SEQ ID NO:6, or KLLLG SEQ ID NO:8. At various time points, 90 μl portions were removed and filtered through a membrane. The yeast cells retained on the filter were washed twice with ice-cold distilled water, once with room temperature distilled water, and the residual radioactivity was measured by liquid scintillation. There was no peptide adsorption to the cell surface or sticking to filters since at 0i C the counts were at background level. The uptake results, calculated on the basis of 50% counting efficiency (determined using L-[^3H]lysine as a standard, and the specific activity of the peptide), were expressed as nmol of peptide uptake per minute per mg cell dry weight.

Test [4] relates to S. cerevisiae PB1X-9B(pOPT1). The test can be described thus: Growth assay, peptides as sole source of leucine, PB1X-9B(pOPT1). Type of test: cell-based, Saccharomyces cerevisiae. The settings on record: 100 μM peptide; for utilization of peptide as a sole source of leucine (growth): medium with 0.1% proline as nitrogen source. The method, then:
(§3) To determine the size constraints of peptide utilization mediated by pOPT1, the ability of S. cerevisiae PB1X-9B (a mutant in the di-/tripeptide transporter) harboring either pRS202 (the parent vector) or pOPT1 (pRS202 containing the 3.8 kb insert with the OPT1 gene) to grow on KL, KLG, KLLG SEQ ID NO:6, and KLLLG SEQ ID NO:8 as a sole source of leucine was tested. Previously it has been shown that di-/tripeptide transport activity in C. albicans and S. cerevisiae is regulated by nitrogen; rich nitrogen sources such as ammnonium sulfate repress, while poor nitrogen sources such as proline derepress transport. Therefore simultaneous effect of nitrogen source on oligopeptide transport activity was determined by supplying either ammnonium sulfate or proline as the nitrogen source.
(§4) Peptide medium consisted of minimal medium supplemented with auxotrophic requirements minus the amino acid Seucine plus 100 μM of one of the following peptidest Lysyl-Leucine (KL), Lysyl-Leucyl-Glycine (KLG), Lysyl-Leucyl-Leucyl-Glycine (KLLG) SEQ ID NO:6, Lysyl-Leucyl-Glycyl-Leucine (KLGL) SEQ ID NO:7, or Lysyl-Leucyl-Leucyl-Leucyl-Glycine (KLLLG) SEQ ID NO:8. Abbreviations for toxic peptides and amino acids used herein are as follows: Ethionine (Eth), Alanyl-Ethionine (AEth), Leucyl-Ethionine (LEth), Lysysl-Leucyl-Ethionine (KLEth), Lysyl-Leucyl-Leucyl-Ethionine (KLLEth) SEQ ID NO:12, Lysysl-Leucyl-Alanyl-Ethionine (KLAEth) SEQ ID NO:14, and Lysyl-Leucyl-Leucyl-Leucyl-Ethionine (KLLLEth) SEQ ID NO:13. All amino acids were in the L configuration.
(§5) Growth assays to determine the phenotype of the cells were done as described by Island et al. (1991). Briefly, 3 μl of culture from a suspension of 5×10^6 cells/ml were spotted to the surface of the medium and plates were incubated at 30 iC for 4-7 days.

Test [5] has as its system S. cerevisiae PB1X-9B(pRS202). Kind of test: Growth assay, peptides as sole source of leucine, PB1X-9B(pRS202). The format is cell-based, Saccharomyces cerevisiae. The settings on record: medium with 0.1% proline as nitrogen source; 100 μM peptide. The method, then: as §3, §4, §5
Test [6] deals with T1, Candida albicans oligopeptide transporter Opt1p (protein product of OPT1) (Candida albicans).
T1 chain: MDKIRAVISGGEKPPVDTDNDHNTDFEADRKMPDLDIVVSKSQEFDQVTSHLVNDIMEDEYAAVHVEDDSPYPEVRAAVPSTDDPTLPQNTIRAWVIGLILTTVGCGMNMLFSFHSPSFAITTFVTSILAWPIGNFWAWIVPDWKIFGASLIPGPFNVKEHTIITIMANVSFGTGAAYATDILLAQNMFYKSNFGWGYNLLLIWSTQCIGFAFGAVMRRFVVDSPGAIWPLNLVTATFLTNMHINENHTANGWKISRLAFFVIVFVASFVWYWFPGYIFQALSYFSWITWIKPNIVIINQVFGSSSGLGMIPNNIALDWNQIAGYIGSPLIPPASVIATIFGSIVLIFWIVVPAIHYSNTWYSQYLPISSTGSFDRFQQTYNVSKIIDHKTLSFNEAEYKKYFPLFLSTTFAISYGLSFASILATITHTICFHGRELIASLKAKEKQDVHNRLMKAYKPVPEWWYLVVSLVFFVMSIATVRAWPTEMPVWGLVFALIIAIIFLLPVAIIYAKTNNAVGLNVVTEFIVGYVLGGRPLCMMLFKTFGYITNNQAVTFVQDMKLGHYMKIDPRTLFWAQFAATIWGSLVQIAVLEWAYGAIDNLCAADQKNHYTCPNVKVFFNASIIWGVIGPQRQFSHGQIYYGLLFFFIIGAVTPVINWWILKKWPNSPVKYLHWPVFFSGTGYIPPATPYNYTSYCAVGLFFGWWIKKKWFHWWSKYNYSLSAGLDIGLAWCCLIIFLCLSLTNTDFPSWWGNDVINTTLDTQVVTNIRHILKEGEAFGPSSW
The test can be described thus: cell-based or functional assay.

Setting [7] is: 10-fold molar excess (1.5 mM) of competitor.

With `CCSCC[C@H](NC(=O)[C@H](CC(C)C)NC(=O)[C@H](CC(C)C)NC(=O)[C@@H](N)CCCCN)C(=O)O` [KLLEth, Lysyl-Leucyl-Leucyl-Ethionine] (H-KLL[hCys](Et)-OH), the entries for the “zone of growth inhibition / sensitivity” value in test [1] and in test [2] were “not for PB1X-9B(pRS202)” and “zone of complete growth inhibition”, respectively. The “zone of growth inhibition” value in test [1] is reported as “not PB1X-9B(pRS202)”.

`CC(C)C[C@H](N)C(=O)O` [L, leucine]: the “uptake rate of KLG-[3H]L in the presence of the competitor” value in test [3] (setting [7]) is on record as 0.25 nm/min/mg of dry weight. In addition, the “competition with the uptake of KLG-[3H]L” value in test [3] is “do not compete”.

Consider `CC(C)C[C@H](NC(=O)[C@@H](N)CCCCN)C(=O)NCC(=O)O` [KLG, Lysyl-Leucyl-Glycine] (H-Lys-Leu-Gly-OH), for which the “utilization of peptide as a sole source of leucine (growth)” value in test [4] is “No growth”. Further, in test [5], the “utilization of peptide as a sole source of leucine (growth)” value was “No growth”. In test [3] (setting [7]), the “uptake rate with competitor as percent of the no-competitor rate” value is “approximately 50%” and the “uptake rate of KLG-[3H]L in the presence of the competitor” value is recorded as 0.12 nmoles/min/mg of dry weight. Also, in test [3], the “competition with the uptake of KLG-[3H]L” value was “decreased competition”.

“KLLAEth: ethionine-containing toxic pentapeptide, SEQ ID NO:15 (KLLA[Eth])”: the “zone of growth inhibition / sensitivity” value in test [1] is “not for PB1X-9B(pRS202)”; in test [2] it was “zone of complete growth inhibition”. In test [1], the “zone of growth inhibition” value was “not PB1X-9B(pRS202)”.

Consider “KLLLG [KLLLG, Lysyl-Leucyl-Leucyl-Leucyl-Glycine]”, for which the “utilization of peptide as a sole source of leucine (growth)” value in test [4] and in test [5] was “No growth” in each case. For the same molecule, in test [3] (setting [7]), the “uptake rate of KLG-[3H]L in the presence of the competitor” value is “zero”. Further, in test [3], the “competition with the uptake of KLG-[3H]L” value was “competition was seen”.

Regarding “Lysysl-Leucyl-Alanyl-Ethionine (KLA[Ethionine]) [KLAEth]”, in test [1], the “zone of growth inhibition / sensitivity” value is “not for PB1X-9B(pRS202)” and the “zone of growth inhibition” value is on record as “not PB1X-9B(pRS202)”. In addition, the “zone of growth inhibition / sensitivity” value in test [2] is on record as “zone of complete growth inhibition”.

For the molecule Lysysl-Leucyl-Ethionine [KLEth], the “zone of growth inhibition / sensitivity” value in test [1] is listed as “Neither strain exhibited sensitivity”. In addition, in test [2], the “zone of growth inhibition / sensitivity” value is listed as “Neither strain exhibited sensitivity” and the “zone of growth inhibition” value was “no zone of growth inhibition”.

Take `CC(C)C[C@H](NC(=O)[C@@H](N)CCCCN)C(=O)O` [KL, Lysyl-Leucine] (H-Lys-Leu-OH): the “utilization of peptide as a sole source of leucine (growth)” value in test [4] and in test [5] was “No growth” each time. Moreover, the “uptake rate of KLG-[3H]L in the presence of the competitor” value in test [3] (setting [7]) is given as 0.26 nm/min/mg of dry weight. The “competition with the uptake of KLG-[3H]L” value in test [3] is recorded as “do not compete”.

As to `CC(C)C[C@H](NC(=O)[C@H](CC(C)C)NC(=O)[C@@H](N)CCCCN)C(=O)NCC(=O)O` [KLLG, Lysyl-Leucyl-Leucyl-Glycine] (H-KLLG-OH), the figures for the “utilization of peptide as a sole source of leucine (growth)” value in test [4] and in test [5] were “able to utilize” and “not able to utilize”, respectively. The “utilization of peptide as a source of leucine (growth)” value in test [4] (medium with ammonium sulfate as nitrogen source) is reported as “able to utilize”. For the same molecule, the “uptake rate of KLG-[3H]L in the presence of the competitor” value in test [3] (setting [7]) is recorded as “zero”. Moreover, the “competition with the uptake of KLG-[3H]L” value in test [3] was “competition was seen”.

Consider `CCSCC[C@H](NC(=O)[C@H](C)N)C(=O)O` [AEth, Alanyl-Ethionine] (H-Ala-[hCys](Et)-OH), for which the “zone of growth inhibition / sensitivity” value in test [1] is recorded as “Neither strain exhibited sensitivity”. Moreover, in test [2], the “zone of growth inhibition / sensitivity” value is reported as “Neither strain exhibited sensitivity” and the “zone of growth inhibition” value is on record as “no zone of growth inhibition”.

As to `CCSCC[C@H](NC(=O)[C@@H](N)CC(C)C)C(=O)O` [LEth, Leucyl-Ethionine] (H-Leu-[hCys](Et)-OH), the “zone of growth inhibition” value in test [2] is reported as “no zone of growth inhibition”.

As for KL [Lysyl-Leucine], in test [6], the “uptake rate of KLG-[3H]L in the presence of a 10-fold molar excess of the competitor” value was 0.26 nm/min/mg of dry weight.

Regarding KLG [Lysyl-Leucyl-Glycine], the “uptake rate of KLG-[3H]L in the presence of a 10-fold molar excess of the competitor” value in test [6] is 0.12 nmoles/min/mg of dry weight.
